Reference: patent US9351944B1, “Malodor eliminating compositions” (TAKASAGO INTERNATIONAL CORPORATION, priority 2008, dated 2016)
Values joined by “and” are separate entries in the source; they are usually repeats but may differ in a detail not shown here. Identical values can stand only once.

Columns and labels:
[1] = Propyl mercaptan chemical suppression by malodor eliminating materials (GC-PFPD); conditions: OE material 0.2%, malodor material 10 ppm, room temperature 2 hours, triplicate
Method: (§1) The selected OE materials were tested for propyl, allyl, and furfuryl mercaptan suppression. 100 μl of 0.01%(w/v) of test malodor material in ethanol, 2 μl of neat flavor oil and 900 μl of deionized water were added into a 4 ml vial and left to sit at room temperature for 2 hours. As a control, ethanol was added instead of test flavor materials. The final concentration of test OE material and malodor material are 0.2% and 10 ppm, respectively. 3 ml of ethanol was added into the resulting vial and the thiol level was analyzed using GC-PFPD. Each material was tested in triplicate. Malodor suppression was calculated as described in the example 1 above.

[2] = Allyl mercaptan chemical suppression by malodor eliminating materials (GC-PFPD); conditions: OE material 0.2%, malodor material 10 ppm, room temperature 2 hours, triplicate
Method: as §1

[3] = Furfuryl mercaptan chemical suppression by malodor eliminating materials (GC-PFPD); conditions: OE material 0.2%, malodor material 10 ppm, room temperature 2 hours, triplicate
Method: as §1

[4] = Methyl mercaptan chemical suppression by Group A and Group B compounds (GC-PFPD); conditions: test material 200 ppm, malodor material 10 ppm, room temperature 2 hours, ethanol/deionized water
Method: 2 μl of 0.5%(w/v) of sodium methoxide in deionized water, 20 μl of 1% (w/v) test malodor eliminating material in ethanol, 80 μl of ethanol, and 900 μl of deionized water were added into a 2 ml GC vial, left to sit at room temperature for 2 hours, and analyzed using Multipurpose sampler-GC-PFPD (Gas Chromatography-Pulsed Flame Photometric Detector) (GC-PFPD)MPS2 (Gerstel)—GC; 6890N (Agilent)—PFPD; model 5380 (OI Analytical). As a control, ethanol was added instead of test malodor eliminating materials. The final concentration of test OE material and malodor material are 200 ppm and 10 ppmm, respectively. Malodor suppression was calculated as follows: Malodor Suppression (%)=(GC area of control sample−GC area of test_sample)/GC area of control sample×100

[5] = Suppression of methyl mercaptan (Example 12, GC-PFPD); conditions: test material 0.2%, malodor material 10 ppm, room temperature 2 hours, triplicate
Method: as §1, with “100” for “The selected OE materials were tested for propyl, allyl, and furfuryl mercaptan suppression. 100”, “the malodor reducing compound.” for “test flavor materials.”, “test” for “test OE”, “ppmm,” for “ppm,”, “GC-PFPD as described above.” for “GC-PFPD.”

[6] = Methyl mercaptan suppression by Group A and Group B materials alone and combined (synergistic or additive activity); conditions: in ethanol, room temperature 2 hours
Method: The synergistic or additive activity of methyl mercaptan inhibition of malodor eliminating materials was tested. 5-40 μl of 1% (w/v) test OE materials in ethanol was placed into a 2 ml GC vial. Ethanol was added into this vial up to 1000 μl. 2 μl of 0.5%(w/v) of sodium methoxide in deionized water was added into the resulting vial, left to sit at room temperature for 2 hours, and analyzed using Multipurpose sampler-GC-PFPD. As a control, ethanol was added instead of test OE materials. Malodor suppression was calculated as described in Example 1 above.

Row | Compound | Malodor reduction (%) propyl mercaptan [1] | Malodor reduction (%) allyl mercaptan [2] | Malodor reduction (%) furfuryl mercaptan [3] | methyl mercaptan suppression (%) [4] | methyl mercaptan suppression (%) [5] | methyl mercaptan suppression (%) A alone ([6]; Group A level 200 ppm) | methyl mercaptan suppression (%) A alone ([6]; Group A level 50 ppm) | methyl mercaptan suppression (%) B alone ([6]; Group B level 100 ppm)
1 | C=C(C)[C@@H]1CC=C(C)C(=O)C1 [CARVONE-L, carvone-l] | <20% | <20% | 27% | 14% | 60% | 12% |  | 
2 | C/C=C/C(=O)C1=C(C)C=CCC1(C)C [DAMASCENONE, damascenone] | 49% | 67% | 67% | 100% | 81% |  | 28% and 17% | 
3 | CC/C=C\CCOC(C)=O [HEXENYL CIS 3 ACETATE, cis-3-hexenyl acetate] | <20% | <20% | 28% | 60% | 38% |  |  | 22% and 27%
